The results in this text go back to patent US20110263699A1 (priority 2002, published 2011).

Experiment [1] addresses μ-Opioid receptor (Rattus norvegicus, UniProt P33535). Description: μ-Opioid receptor binding (rat).
The target in another experiment is 5HT uptake (Homo sapiens, UniProt P31645). Description: biochemical. To be noted: read-out: 5HT uptake inhibition Ki values.
In the next experiment the target is NA uptake (Homo sapiens, UniProt P23975). Description: biochemical. To be noted: read-out: NA uptake inhibition Ki values.
A further experiment has as its system duration of immobility. The experiment in a line: Tail suspension test on mice. It is filed as in vivo. The source says: Rodents left hanging by the tail rapidly become immobile. Antidepressants reduce the duration of the immobility, while tranquilizers prolong the duration of the immobility. […] Several mice were investigated in parallel and the duration of immobility determined. […] 10-20 mice were investigated per group. […] In this behavioural model, antidepressants, as also in other behavioural models, lead to a shortening of the immobility phase, while opioids such as morphine prolong the immobility phase.

Experiment [2] deals with T1, μ-Opioid receptor (Homo sapiens, UniProt P35372). Description: μ-Opioid receptor binding (human).
Target sequence in this assay (P35372 whole entry): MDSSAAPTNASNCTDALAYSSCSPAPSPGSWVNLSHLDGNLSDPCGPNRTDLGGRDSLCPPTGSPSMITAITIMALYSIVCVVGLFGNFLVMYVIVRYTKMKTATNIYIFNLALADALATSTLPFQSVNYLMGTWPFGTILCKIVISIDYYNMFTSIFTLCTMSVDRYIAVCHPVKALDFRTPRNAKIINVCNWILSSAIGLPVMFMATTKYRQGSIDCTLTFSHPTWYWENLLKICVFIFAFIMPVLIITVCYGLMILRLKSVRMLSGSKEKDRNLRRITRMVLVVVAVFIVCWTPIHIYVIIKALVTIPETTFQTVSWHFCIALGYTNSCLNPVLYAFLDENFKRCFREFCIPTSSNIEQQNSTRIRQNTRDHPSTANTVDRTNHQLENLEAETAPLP
Experiment [3] has as its target T1, μ-Opioid receptor. The experiment in a line: μ-Opioid receptor binding (species not given).
Target sequence in this assay (P35372 whole entry, species assumed): as the sequence (P35372 whole entry) above
Setting [4] is: 4.64 mg/kg i.p., 30 minutes before the test.

Structures can show the parent of a compound that is named as a salt.

NA uptake, sequence (P23975 whole entry): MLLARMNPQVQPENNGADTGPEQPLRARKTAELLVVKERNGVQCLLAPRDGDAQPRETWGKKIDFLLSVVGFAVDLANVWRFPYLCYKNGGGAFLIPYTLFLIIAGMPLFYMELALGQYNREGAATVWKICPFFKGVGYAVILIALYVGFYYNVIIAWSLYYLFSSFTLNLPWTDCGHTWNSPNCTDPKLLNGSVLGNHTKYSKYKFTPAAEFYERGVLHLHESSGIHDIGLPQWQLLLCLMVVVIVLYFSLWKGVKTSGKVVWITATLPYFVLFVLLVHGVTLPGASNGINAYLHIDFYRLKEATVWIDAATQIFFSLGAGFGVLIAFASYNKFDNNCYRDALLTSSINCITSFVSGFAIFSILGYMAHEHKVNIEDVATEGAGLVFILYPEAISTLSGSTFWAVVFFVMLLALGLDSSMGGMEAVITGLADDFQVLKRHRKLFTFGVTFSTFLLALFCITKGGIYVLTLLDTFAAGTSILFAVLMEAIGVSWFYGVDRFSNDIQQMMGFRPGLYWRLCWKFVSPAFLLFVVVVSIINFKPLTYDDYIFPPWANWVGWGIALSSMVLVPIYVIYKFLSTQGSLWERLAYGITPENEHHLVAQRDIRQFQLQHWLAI
5HT uptake, sequence (P31645 whole entry): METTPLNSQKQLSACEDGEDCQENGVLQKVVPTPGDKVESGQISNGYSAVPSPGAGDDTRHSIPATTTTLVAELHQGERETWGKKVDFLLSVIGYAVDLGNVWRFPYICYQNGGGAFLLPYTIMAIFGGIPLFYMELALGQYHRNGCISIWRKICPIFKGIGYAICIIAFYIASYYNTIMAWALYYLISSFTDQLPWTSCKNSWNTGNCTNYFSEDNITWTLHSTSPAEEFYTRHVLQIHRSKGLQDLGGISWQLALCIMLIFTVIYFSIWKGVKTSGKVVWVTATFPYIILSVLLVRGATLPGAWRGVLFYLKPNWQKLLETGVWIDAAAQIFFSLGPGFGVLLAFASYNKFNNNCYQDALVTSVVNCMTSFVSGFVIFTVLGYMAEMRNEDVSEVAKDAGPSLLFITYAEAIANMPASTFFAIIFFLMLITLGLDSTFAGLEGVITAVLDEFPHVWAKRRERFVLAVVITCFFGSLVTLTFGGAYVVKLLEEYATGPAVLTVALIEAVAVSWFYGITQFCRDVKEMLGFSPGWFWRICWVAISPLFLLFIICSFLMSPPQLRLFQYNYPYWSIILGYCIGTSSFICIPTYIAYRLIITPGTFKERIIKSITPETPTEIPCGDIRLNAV
μ-Opioid receptor (Rattus norvegicus, UniProt P33535), sequence (P33535 whole entry): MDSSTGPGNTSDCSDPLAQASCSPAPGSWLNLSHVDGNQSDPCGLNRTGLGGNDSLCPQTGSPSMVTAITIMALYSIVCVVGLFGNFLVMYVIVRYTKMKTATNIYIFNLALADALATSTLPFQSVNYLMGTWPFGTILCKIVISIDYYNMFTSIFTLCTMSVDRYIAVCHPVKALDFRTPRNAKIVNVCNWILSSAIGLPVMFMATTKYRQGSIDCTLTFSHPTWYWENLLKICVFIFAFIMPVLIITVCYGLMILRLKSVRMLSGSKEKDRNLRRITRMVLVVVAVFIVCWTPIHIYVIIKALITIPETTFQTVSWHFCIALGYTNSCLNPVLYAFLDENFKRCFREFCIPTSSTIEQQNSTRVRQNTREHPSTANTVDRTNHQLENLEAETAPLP

As a reminder, the Ki is a measure of affinity in units of concentration, obtained from inhibition or displacement. For `CN(C)C[C@@H]1CCCC[C@H]1c1cccc(O)c1.Cl` [(1R,2R)-3-(2-dimethylaminomethyl-cyclohexyl)-phenol; hydrochloride], the Ki came to 38 nM on μ-Opioid receptor [1], 50 nM on 5HT uptake and 160 nM on NA uptake. The “Duration of immobility % change compared with the solvent control” value (“Duration of immobility % change” below) with duration of immobility (setting [4]) is on record as “+6%”. Besides, the “Duration of immobility (in words)” value in the experiment on duration of immobility (after pretreatment with naloxone) is recorded as “marked decrease in the duration of immobility”. Also, in the experiment on duration of immobility (without naloxone pretreatment), the “Duration of immobility compared with the solvent control (in words)” value is “only a slight change in the duration of immobility”.
For the compound `CNC[C@@H]1CCCC[C@H]1c1cccc(O)c1` [(1R,2R)-3-(2-methylaminomethyl-cyclohexyl)-phenol, hydrochloride], the inhibition constant Ki came out at 9410 nM on 5HT uptake, 560 nM at NA uptake and 910 nM at μ-Opioid receptor [2].
On to `CNCCCN1c2ccccc2CCc2ccccc21` [Desipramine, desipramine], for which, on μ-Opioid receptor [3], the “μ-Opioid receptor Ki values” is “inactive”.
Take `CNCCC(Oc1ccc(C(F)(F)F)cc1)c1ccccc1` (stereo not shown) [Fluoxetine, fluoxetine]: at μ-Opioid receptor [3], the “μ-Opioid receptor Ki values” was “inactive”.
On to `CN(C)CCCN1c2ccccc2CCc2ccccc21` [Imipramine, imipramine], for which, in the experiment with duration of immobility (31.6 mg/kg i.p., 30 minutes before the test), the “Duration of immobility % change” value is −61%.
In the case of `CN1CC[C@]23c4c5ccc(O)c4O[C@H]2[C@@H](O)C=C[C@H]3[C@H]1C5` [Morphine, morphine], the “Duration of immobility % change” value in the experiment with duration of immobility (setting [4]) was “+90%”; with duration of immobility (10.0 mg/kg i.p., 30 minutes before the test), “+145%”; in the experiment on duration of immobility (21.5 mg/kg i.p., 30 minutes before the test), “+169%”.
Turning to `C=CCN1CC[C@]23c4c5ccc(O)c4O[C@H]2C(=O)CC[C@@]3(O)[C@H]1C5` [Naloxone, naloxone], the “Duration of immobility % change” value in the experiment on duration of immobility (1.0 mg/kg i.v.) is on record as −15%.
